Values of other authors, collected in patent US20220401390A1, “TREATMENTS OF DIABETIC MACULAR EDEMA AND IMPAIRED VISUAL ACUITY” (KALVISTA PHARMACEUTICALS LIMITED, priority 2019, published 2022).

Assays:
patients with DME = conditions: clinical trials, after one year; cited from earlier work
diabetic rats = conditions: cited from earlier work

Molecule | Efficacy compared with laser therapy (patients with DME) | Retinal vascular permeability and retinal blood flow abnormalities (diabetic rats)
pegaptanib | more effective than laser therapy | –
aflibercept: anti-VEGF therapy for DME currently in use | more effective than laser therapy | –
N=C(N)c1ccc(CNC(=O)c2cnn(Cc3ccccc3)c2)cc1 [ASP-440] | – | ameliorated
bevacizumab: anti-VEGF therapy for DME currently in use | more effective than laser therapy | –
ranibizumab: anti-VEGF therapy for DME currently in use (antibody, chains of the INN, looked up, V domains shown, Fab, anti-VEGF therapy for DME currently in use) VH: EVQLVESGGGLVQPGGSLRLSCAASGYDFTHYGMNWVRQAPGKGLEWVGWINTYTGEPTYAADFKRRFTFSLDTSKSTAYLQMNSLRAEDTAVYYCAKYPYYYGTSHWYFDVWGQGTLVTVSS VL: DIQLTQSPSSLSASVGDRVTITCSASQDISNYLNWYQQKPGKAPKVLIYFTSSLHSGVPSRFSGSGSGTDFTLTISSLQPEDFATYYCQQYSTVPWTFGQGTKVEIK | more effective than laser therapy | –
